Regarding `CNC(=O)c1cccc(-c2c(C)cc(C)cc2C)c1` [1-22, N-methyl-3-(2′,4′,6′-trimethylphenyl)benzamide], the melting point is 142.9 °C.
With `CNC(=O)c1cccc(-c2c(Cl)ccc(Cl)c2Cl)c1` [1-72, N-methyl-3-(2′,3′,6′-trichlorophenyl)benzamide] the figure was 135.3 °C; with `Cc1cc(Oc2ccc(C(F)(F)F)cn2)cc(C)c1-c1cccc(N)c1` [Compound No. 1-57, 4-(3′-aminophenyl)3,5-dimethylphenyl 5-trifluoromethyl-2-pyridyl ether], 200.3 °C.
Regarding `CNC(=O)c1cccc(-c2c(C)cc(Cl)cc2C)c1` [Compound No. 1-23, N-methyl-3-(4′-chloro-2′,6′-dimethylphenyl)benzamide], the melting point worked out at 137.1 °C.
Then `CNC(=O)c1cccc(-c2c(Cl)ccc(Br)c2Cl)c1` [1-82, N-methyl-3-(2′,6′-dichloro-3′-bromophenyl)benzamide], with 158 °C; and `CCNC(=O)c1cccc(-c2c(Cl)ccc(C(F)(F)F)c2Cl)c1` [1-127, N-ethyl-3-(2′,6′-dichloro-3′-trifluoromethylphenyl)benzamide], with 137 °C; and `CNC(=O)c1cc(-c2c(Cl)cccc2Cl)ccc1F` [2-22, N-methyl-3-(2′,6′-dichlorophenyl)-6-fluorobenzamide], with 142.5 °C.
With `CNC(=O)c1cccc(-c2c(Cl)cccc2Cl)c1` [1-30, N-methyl-3-(2′,6′-dichlorophenyl)benzamide] the figure was 174.8 °C; with `CNC(=O)c1cccc(-c2c(C)cc(OC)cc2C)c1` [1-65, N-methyl-3-(2′,6′-dimethyl-4′-methoxyphenyl)benzamide], 139.6 °C; with `CNC(=O)c1cccc(-c2c(Cl)ccc(C(F)(F)F)c2Cl)c1` [1-120, N-methyl-3-(2′,6′-dichloro-3′-trifluoromethylphenyl)benzamide], 126.1 °C.
`Nc1cccc(-c2c(Cl)cccc2Cl)c1` [1-268, 3-(2′,6′-dichlorophenyl)aniline]: the melting point is 102 °C.
With `CNC(=O)c1cccc(-c2c(Cl)ccc(N)c2Cl)c1` [1-108, N-methyl-3-(2′,6′-dichloro-3′-aminophenyl)benzamide] the figure was 64.1 °C; with `CNC(=O)c1cc(-c2c(C)cc(C)cc2C)ccc1Cl` [Compound No. 2-12, N-methyl-6-chloro-3-(2′,4′,6′-trimethylphenyl)benzamide], 130 °C.

Source of the values: patent publication US20070135497A1, “Biphenyl derivative or its salt, and pesticide containing it as an active ingredient” (ISHIHARA SANGYO KAISHA LTD., priority 2003, published 2007).
